# Laboratory results as given in US20260015350A1, “AZAQUINAZOLINE PAN-KRAS INHIBITORS” (Mirati Therapeutics, Inc., priority 2022, published 2026).
# How the values were obtained:
# KRas^WT = biological target: T1, KRas^WT (Homo sapiens, UniProt P01116); assay: KRas binding assay (TR-FRET tracer displacement), KRas WT; conditions: for IC50: TR-FRET tracer displacement, KRas WT
# T1 construct: Biotinylated KRas (corresponding to amino acids 1-169, produced at Accelegan Inc.); biotin (biotinylated); purchased Accelegan Inc
# T1 sequence (P01116 1-169 isoform P01116-2): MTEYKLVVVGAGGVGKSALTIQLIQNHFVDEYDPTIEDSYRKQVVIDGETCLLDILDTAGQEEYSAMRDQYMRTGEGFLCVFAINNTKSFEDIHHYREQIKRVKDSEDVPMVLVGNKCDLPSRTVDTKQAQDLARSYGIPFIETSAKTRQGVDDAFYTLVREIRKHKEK
# KRas^G12A = biological target: T2, KRas^G12A (Homo sapiens, UniProt P01116, G12A); assay: KRas binding assay (TR-FRET tracer displacement), KRas G12A; conditions: for IC50: TR-FRET tracer displacement, KRas G12A
# T2 construct: Biotinylated KRas (corresponding to amino acids 1-169, produced at Accelegan Inc.); biotin (biotinylated); purchased Accelegan Inc
# T2 sequence (P01116 1-169 isoform P01116-2 G12A): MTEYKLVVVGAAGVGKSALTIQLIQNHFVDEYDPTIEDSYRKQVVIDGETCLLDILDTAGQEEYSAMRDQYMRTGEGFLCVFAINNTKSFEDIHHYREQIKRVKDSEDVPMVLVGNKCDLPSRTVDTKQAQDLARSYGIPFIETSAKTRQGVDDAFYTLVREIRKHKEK
# KRas^G12C = biological target: T3, KRas^G12C (Homo sapiens, UniProt P01116, G12C); assay: KRas binding assay (TR-FRET tracer displacement), KRas G12C; conditions: for IC50: TR-FRET tracer displacement, KRas G12C
# T3 construct: Biotinylated KRas (corresponding to amino acids 1-169, produced at Accelegan Inc.); biotin (biotinylated); purchased Accelegan Inc
# T3 sequence (P01116 1-169 isoform P01116-2 G12C): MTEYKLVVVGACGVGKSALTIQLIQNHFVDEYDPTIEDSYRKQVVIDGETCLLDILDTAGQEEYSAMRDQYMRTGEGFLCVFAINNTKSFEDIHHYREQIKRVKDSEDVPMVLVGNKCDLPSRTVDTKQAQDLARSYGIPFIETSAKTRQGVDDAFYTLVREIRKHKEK
# KRas^G12D = biological target: T4, KRas^G12D (Homo sapiens, UniProt P01116, G12D); assay: KRas binding assay (TR-FRET tracer displacement), KRas G12D
# T4 construct: Biotinylated KRas (corresponding to amino acids 1-169, produced at Accelegan Inc.); biotin (biotinylated); purchased Accelegan Inc
# T4 sequence (P01116 1-169 isoform P01116-2 G12D): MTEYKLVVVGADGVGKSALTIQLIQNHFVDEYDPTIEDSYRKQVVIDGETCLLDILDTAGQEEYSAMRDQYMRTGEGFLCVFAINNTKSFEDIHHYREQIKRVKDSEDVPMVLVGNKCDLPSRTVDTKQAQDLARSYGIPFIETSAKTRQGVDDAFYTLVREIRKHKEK
# KRas^G12R = biological target: T5, KRas^G12R (Homo sapiens, UniProt P01116, G12R); assay: KRas binding assay (TR-FRET tracer displacement), KRas G12R
# T5 construct: Biotinylated KRas (corresponding to amino acids 1-169, produced at Accelegan Inc.); biotin (biotinylated); purchased Accelegan Inc
# T5 sequence (P01116 1-169 isoform P01116-2 G12R): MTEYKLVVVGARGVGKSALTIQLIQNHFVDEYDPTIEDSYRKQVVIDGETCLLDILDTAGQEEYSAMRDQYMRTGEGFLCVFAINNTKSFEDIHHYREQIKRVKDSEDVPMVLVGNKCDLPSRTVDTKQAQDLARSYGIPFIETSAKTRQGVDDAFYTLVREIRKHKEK
# KRas^G12S = biological target: T6, KRas^G12S (Homo sapiens, UniProt P01116, G12S); assay: KRas binding assay (TR-FRET tracer displacement), KRas G12S; conditions: for IC50: TR-FRET tracer displacement, KRas G12S
# T6 construct: Biotinylated KRas (corresponding to amino acids 1-169, produced at Accelegan Inc.); biotin (biotinylated); purchased Accelegan Inc
# T6 sequence (P01116 1-169 isoform P01116-2 G12S): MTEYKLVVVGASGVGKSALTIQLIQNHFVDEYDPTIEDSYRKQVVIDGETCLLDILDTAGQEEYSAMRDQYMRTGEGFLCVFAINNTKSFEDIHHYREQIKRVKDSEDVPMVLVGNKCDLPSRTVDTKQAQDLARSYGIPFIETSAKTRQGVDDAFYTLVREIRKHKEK
# KRas^G12V = biological target: T7, KRas^G12V (Homo sapiens, UniProt P01116, G12V); assay: KRas binding assay (TR-FRET tracer displacement), KRas G12V
# T7 construct: Biotinylated KRas (corresponding to amino acids 1-169, produced at Accelegan Inc.); biotin (biotinylated); purchased Accelegan Inc
# T7 sequence (P01116 1-169 isoform P01116-2 G12V): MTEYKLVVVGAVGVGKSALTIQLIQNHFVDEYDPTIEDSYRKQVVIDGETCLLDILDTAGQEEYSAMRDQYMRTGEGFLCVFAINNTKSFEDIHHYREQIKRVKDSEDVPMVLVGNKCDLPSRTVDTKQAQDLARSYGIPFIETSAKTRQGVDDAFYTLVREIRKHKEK
# KRas^G13D = biological target: T8, KRas^G13D (Homo sapiens, UniProt P01116, G13D); assay: KRas binding assay (TR-FRET tracer displacement), KRas G13D; conditions: for IC50: TR-FRET tracer displacement, KRas G13D
# T8 construct: Biotinylated KRas (corresponding to amino acids 1-169, produced at Accelegan Inc.); biotin (biotinylated); purchased Accelegan Inc
# T8 sequence (P01116 1-169 isoform P01116-2 G13D): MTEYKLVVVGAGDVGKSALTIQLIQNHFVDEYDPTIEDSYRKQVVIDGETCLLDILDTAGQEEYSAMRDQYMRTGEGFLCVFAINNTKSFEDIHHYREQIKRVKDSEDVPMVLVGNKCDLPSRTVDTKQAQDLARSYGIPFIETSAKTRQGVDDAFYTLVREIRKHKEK
# KRas^Q61H = biological target: T9, KRas^Q61H (Homo sapiens, UniProt P01116, Q61H); assay: KRas binding assay (TR-FRET tracer displacement), KRas Q61H; conditions: for IC50: TR-FRET tracer displacement, KRas Q61H
# T9 construct: Biotinylated KRas (corresponding to amino acids 1-169, produced at Accelegan Inc.); biotin (biotinylated); purchased Accelegan Inc
# T9 sequence (P01116 1-169 isoform P01116-2 Q61H): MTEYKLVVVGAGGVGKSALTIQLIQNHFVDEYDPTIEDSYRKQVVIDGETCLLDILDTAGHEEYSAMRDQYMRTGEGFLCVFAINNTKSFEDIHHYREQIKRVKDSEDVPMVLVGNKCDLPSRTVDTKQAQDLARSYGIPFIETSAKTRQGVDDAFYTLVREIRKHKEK
# [1] = system: KRas-mediated phosphorylation of ERK in AsPC-1 cells; assay: Inhibition of KRas-mediated phosphorylation of ERK (Cisbio HTRF pERK), AsPC-1 cells; type: cell-based; conditions: Homo sapiens; for IC50: ASPC1, AsPC-1 cells, HTRF pERK; for inhibition at 0.1 µM: ASPC1, 3 h, single point, 100 nM compound, 3 hrs, AsPC-1 cells
# Summary of the method: (§1)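 Compound treatment lasts 3 hrs on 6,000 seeded cells, testing 10 doses from a 10 uM top concentration in 3-fold decrements at 0.8% final DMSO. Trametinib at 0.2 uM defines the Min signal. Detection is HTRF on cold-lysed cell extracts.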
# [2] = system: KRas-mediated phosphorylation of ERK in H727 cells; assay: Inhibition of KRas-mediated phosphorylation of ERK (Cisbio HTRF pERK), H727 cells; type: cell-based; conditions: Homo sapiens; for IC50: NCI-H727, H727 cells, HTRF pERK; for inhibition at 0.1 µM: NCI-H727, 3 h, single point, 100 nM compound, 3 hrs, H727 cells
# Summary of the method: as §1
# [3] = system: KRas-mediated phosphorylation of ERK in A549 cells; assay: Inhibition of KRas-mediated phosphorylation of ERK (Cisbio HTRF pERK), A549 cells; type: cell-based; conditions: Homo sapiens, A549, 3 h, single point, 100 nM compound, 3 hrs
# Summary of the method: (§2)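 6,000 cells/well; cpd 10 uM top, 3-fold x10, 0.8% DMSO final; 3 hr incubation; Min ctrl Trametinib 0.2 uM; lysis 40 min 4° C shaking; d2 + Cryptate Ab mix, 2 hr RT; HTRF read.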
# [4] = system: KRas-mediated phosphorylation of ERK in H460 cells; assay: Inhibition of KRas-mediated phosphorylation of ERK (Cisbio HTRF pERK), H460 cells; type: cell-based; conditions: Homo sapiens, NCI-H460, 3 h, single point, 100 nM compound, 3 hrs
# Summary of the method: as §1
# [5] = system: KRas-mediated phosphorylation of ERK in HCT116 cells; assay: Inhibition of KRas-mediated phosphorylation of ERK (Cisbio HTRF pERK), HCT116 cells; type: cell-based; conditions: Homo sapiens, HCT-116, 3 h, single point, 100 nM compound, 3 hrs
# Summary of the method: as §2
# [6] = system: KRas-mediated phosphorylation of ERK in H358 cells; assay: Inhibition of KRas-mediated phosphorylation of ERK (Cisbio HTRF pERK), H358 cells; type: cell-based; conditions: Homo sapiens, NCI-H358, 3 h, single point, 100 nM compound, 3 hrs
# Summary of the method: as §1
# [7] = single point, 10 nM compound, TR-FRET
SMILES,IC50 (KRas^WT),IC50 (KRas^G12A),IC50 (KRas^G12C),IC50 (KRas^G12D),IC50 (KRas^G12R),IC50 (KRas^G12S),IC50 (KRas^G12V),IC50 (KRas^G13D),IC50 (KRas^Q61H),IC50 [1],IC50 [2],inhibition at 0.1 µM [3],inhibition at 0.1 µM [4],inhibition at 0.1 µM [5],inhibition at 0.1 µM [6],further results
"Cc1cccc2c(-c3ncc4c(N5C[C@@H]6C[C@H](C5)[C@H](O)C6)nc(OC[C@@]56CCCN5C[C@H](F)C6)nc4c3F)cc(O)cc12 [Example 747, (1R,5R,6R)-3-(8-fluoro-2-(((2R,7aS)-2-fluorohexahydro-1H-pyrrolizin-7a-yl)methoxy)-7-(3-hydroxy-5-methylnaphthalen-1-yl)pyrido[4,3-d]pyrimidin-4-yl)-3-azabicyclo[3.2.1]octan-6-ol]",107 nM,36 nM,107 nM,272 nM,76 nM,61 nM,67 nM,94 nM,180 nM,3850 nM,1260 nM,4%,-6%,5%,-6%,–
"Oc1cc(-c2ncc3c(N4C[C@@H]5C[C@H](C4)[C@H](O)C5)nc(OC[C@@]45CCCN4C[C@H](F)C5)nc3c2F)c2ccc(F)cc2c1 [Example 749, (1R,5R,6R)-3-(8-fluoro-7-(6-fluoro-3-hydroxynaphthalen-1-yl)-2-(((2R,7aS)-2-fluorohexahydro-1H-pyrrolizin-7a-yl)methoxy)pyrido[4,3-d]pyrimidin-4-yl)-3-azabicyclo[3.2.1]octan-6-ol]",34 nM,25 nM,29 nM,54 nM,16 nM,19 nM,19 nM,37 nM,44 nM,1400 nM,246 nM,15%,-3%,20%,-5%,–
"O=S1(=O)NCC2(CCCN(c3nc(OCC45CCCN4CCC5)nc4c(F)c(-c5c6ccccc6cc6[nH]ncc56)ncc34)C2)N1 (stereo not shown) [Example 758, 7-(7-(1H-benzo[f]indazol-4-yl)-8-fluoro-2-((hexahydro-1H-pyrrolizin-7a-yl)methoxy)pyrido[4,3-d]pyrimidin-4-yl)-2-thia-1,3,7-triazaspiro[4.5]decane 2,2-dioxide]",< 2 nM,< 2 nM,< 2 nM,5 nM,< 2 nM,< 2 nM,< 2 nM,< 2 nM,< 2 nM,1270 nM,1780 nM,11%,9%,20%,23%,–
"Oc1cc(-c2ncc3c(N4C[C@@H]5C[C@H](C4)[C@H](O)C5)nc(OC[C@@]45CCCN4C[C@H](F)C5)nc3c2F)c2ccc(Cl)cc2c1 [Example 763, (1R,5R,6R)-3-(7-(6-chloro-3-hydroxynaphthalen-1-yl)-8-fluoro-2-(((2R,7aS)-2-fluorohexahydro-1H-pyrrolizin-7a-yl)methoxy)pyrido[4,3-d]pyrimidin-4-yl)-3-azabicyclo[3.2.1]octan-6-ol]",36 nM,25 nM,33 nM,70 nM,18 nM,20 nM,23 nM,36 nM,45 nM,1250 nM,498 nM,-11%,13%,5%,-25%,–
"CCc1cccc2cc3[nH]ncc3c(-c3ncc4c(N5CCCC6(CNS(=O)(=O)N6)C5)nc(OC[C@@]56CCCN5C[C@H](F)C6)nc4c3F)c12 (stereo partly drawn) [Example 772, 7-(7-(5-ethyl-1H-benzo[f]indazol-4-yl)-8-fluoro-2-(((2R,7aS)-2-fluorohexahydro-1H-pyrrolizin-7a-yl)methoxy)pyrido[4,3-d]pyrimidin-4-yl)-2-thia-1,3,7-triazaspiro[4.5]decane 2,2-dioxide]",4 nM,5 nM,7 nM,7 nM,12 nM,5 nM,5 nM,4 nM,3 nM,2230 nM,2670 nM,22%,19%,3%,-4%,–

# More lines, main results first:
IC50 (KRas^WT),IC50 (KRas^G12A),IC50 (KRas^G12C),IC50 (KRas^G12D),IC50 (KRas^G12R),IC50 (KRas^G12S),IC50 (KRas^G12V),IC50 (KRas^G13D),IC50 (KRas^Q61H),IC50 [1],IC50 [2],SMILES,inhibition at 0.1 µM [3],inhibition at 0.1 µM [4],inhibition at 0.1 µM [5],inhibition at 0.1 µM [6],further results
20 nM,16 nM,18 nM,32 nM,11 nM,12 nM,12 nM,21 nM,26 nM,788 nM,275 nM,"Oc1cc(-c2ncc3c(N4C[C@@H]5C[C@H](C4)[C@H](O)C5)nc(OC[C@@]45CCCN4C[C@H](F)C5)nc3c2F)c2cccc(F)c2c1 [Example 748, (1R,5R,6R)-3-(8-fluoro-7-(5-fluoro-3-hydroxynaphthalen-1-yl)-2-(((2R,7aS)-2-fluorohexahydro-1H-pyrrolizin-7a-yl)methoxy)pyrido[4,3-d]pyrimidin-4-yl)-3-azabicyclo[3.2.1]octan-6-ol]",-7%,-6%,21%,5%,–
84 nM,63 nM,74 nM,98 nM,42 nM,43 nM,29 nM,74 nM,184 nM,1900 nM,1680 nM,"Oc1cc(-c2ncc3c(N4C[C@@H]5C[C@H](C4)[C@H](O)C5)nc(OC[C@@]45CCCN4C[C@H](F)C5)nc3c2F)c2ccccc2c1F [Example 750, (1R,5R,6R)-3-(8-fluoro-7-(4-fluoro-3-hydroxynaphthalen-1-yl)-2-(((2R,7aS)-2-fluorotetrahydro-1H-pyrrolizin-7a(5H)-yl)methoxy)pyrido[4,3-d]pyrimidin-4-yl)-3-azabicyclo[3.2.1]octan-6-ol]",-1%,16%,2%,15%,inhibition at 0.1 µM [1]: -1%; inhibition at 0.1 µM [2]: 1%
–,–,–,< 2 nM,< 2 nM,–,< 2 nM,–,–,55 nM,53 nM,"C#Cc1c(F)ccc2cc(O)cc(-c3ncc4c(N5CCC[C@@](C)(O)C5)nc(OCC5(CN6CCCC6)CC5)nc4c3F)c12 [Example 752, (R)-1-(7-(8-ethynyl-7-fluoro-3-hydroxynaphthalen-1-yl)-8-fluoro-2-((1-(pyrrolidin-1-ylmethyl)cyclopropyl)methoxy)pyrido[4,3-d]pyrimidin-4-yl)-3-methylpiperidin-3-ol]",31%,44%,32%,76%,inhibition at 0.01 µM (KRas^WT; [7]): 97%; inhibition at 0.01 µM (KRas^G12A; [7]): 96%; inhibition at 0.01 µM (KRas^G12C; [7]): 99%; inhibition at 0.01 µM (KRas^G12S; [7]): 97%; inhibition at 0.01 µM (KRas^G13D; [7]): 98%; inhibition at 0.01 µM (KRas^Q61H; [7]): 99%; inhibition at 0.1 µM [1]: 27%; inhibition at 0.1 µM [2]: 31%
